In ChEMBL document CHEMBL1201862, “PubChem BioAssay data set” (2004):
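All cell lines were grown in 96-well plates and treated with compound for 48 hours. GI50 marks 50% less growth.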 Calls of active or inactive are those of the source. Rule as the data show it: active = GI50 up to about 1.1 µM and inactive = higher.

Assays:
Assay in all cases: NCI tumour cell line growth inhibition, 48 h
786-0 = test system: 786-0
A498 = test system: A498
A549 = test system: A549
ACHN = test system: ACHN
CAKI-1 = test system: CAKI-1
CCRF-CEM = test system: CCRF-CEM
COLO 205 = test system: COLO 205
DLD-1 = test system: DLD-1
DMS-114 = test system: DMS-114
DMS-273 = test system: DMS-273
EKVX = test system: EKVX
HCT-116 = test system: HCT-116
HL-60 = test system: HL-60
HOP-18 = test system: HOP-18
HOP-62 = test system: HOP-62
HOP-92 = test system: HOP-92
HT-29 = test system: HT-29
IGROV-1 = test system: IGROV-1
K562 = test system: K562
KM-20L2 = test system: KM-20L2
KM12 = test system: KM12
LXFL 529 = test system: LXFL 529
M14 = test system: M14
MOLT-4 = test system: MOLT-4
Malme-3M = test system: Malme-3M
NCI-H226 = test system: NCI-H226
NCI-H23 = test system: NCI-H23
NCI-H460 = test system: NCI-H460
NCI-H522 = test system: NCI-H522
OVCAR-3 = test system: OVCAR-3
OVCAR-4 = test system: OVCAR-4
OVCAR-5 = test system: OVCAR-5
OVCAR-8 = test system: OVCAR-8
RXF 393 = test system: RXF 393
RXF 631 = test system: RXF 631
SF-268 = test system: SF-268
SF-295 = test system: SF-295
SF-539 = test system: SF-539
SK-MEL-28 = test system: SK-MEL-28
SK-MEL-2 = test system: SK-MEL-2
SK-MEL-5 = test system: SK-MEL-5
SK-OV-3 = test system: SK-OV-3
SN12C = test system: SN12C
SNB-19 = test system: SNB-19
SNB-75 = test system: SNB-75
SNB-78 = test system: SNB-78
SR = test system: SR
SW-620 = test system: SW-620
U-251 = test system: U-251
UACC-257 = test system: UACC-257
UO-31 = test system: UO-31
M19-MEL = test system: M19-MEL
TK-10 = test system: TK-10
UACC-62 = test system: UACC-62
HCC 2998 = test system: HCC 2998
HCT-15 = test system: HCT-15
LOX IMVI = test system: LOX IMVI
RPMI-8226 = test system: RPMI-8226
XF498 = test system: XF498

Measured: GI50

COc1ccc2c(c1)[n+]([O-])c(-c1ccc([N+](=O)[O-])cc1)c(N)[n+]2[O-]
inactive: 786-0 > 100 µM | A498 > 100 µM | A549 70.8 µM | ACHN > 100 µM | CAKI-1 > 100 µM | CCRF-CEM 56.5 µM | COLO 205 47.4 µM | DLD-1 63.1 µM | DMS-114 21.4 µM | DMS-273 > 100 µM | EKVX > 100 µM | HCT-116 26.6 µM | HL-60 57.5 µM | HOP-18 > 100 µM | HOP-62 > 100 µM | HOP-92 > 100 µM | HT-29 65.5 µM | IGROV-1 75.2 µM | K562 32.6 µM | KM-20L2 49.5 µM | KM12 > 100 µM | LXFL 529 39.5 µM | M14 > 100 µM | MOLT-4 22.3 µM | Malme-3M > 100 µM | NCI-H226 > 100 µM | NCI-H23 88.5 µM | NCI-H460 49.5 µM | NCI-H522 12.7 µM | OVCAR-3 > 100 µM | OVCAR-4 > 100 µM | OVCAR-5 > 100 µM | OVCAR-8 > 100 µM | RXF 393 > 100 µM | RXF 631 > 100 µM | SF-268 78.2 µM | SF-295 > 100 µM | SF-539 > 100 µM | SK-MEL-28 67 µM | SK-MEL-2 80.4 µM | SK-MEL-5 > 100 µM | SK-OV-3 > 100 µM | SN12C > 100 µM | SNB-19 > 100 µM | SNB-75 > 100 µM | SNB-78 96.4 µM | SR 18.7 µM | SW-620 > 100 µM | U-251 68.1 µM | UACC-257 81.3 µM | UO-31 > 100 µM

COc1ccc(C(=O)O)c2c(=O)c3cccnc3[nH]c12
inactive: A498 > 100 µM | A549 > 100 µM | ACHN > 100 µM | CCRF-CEM > 100 µM | DMS-114 > 100 µM | EKVX > 100 µM | HCT-116 > 100 µM | HL-60 > 100 µM | HOP-62 > 100 µM | HOP-92 > 100 µM | HT-29 > 100 µM | IGROV-1 > 100 µM | KM-20L2 > 100 µM | KM12 > 100 µM | M14 > 100 µM | M19-MEL > 100 µM | MOLT-4 > 100 µM | NCI-H23 > 100 µM | NCI-H460 > 100 µM | NCI-H522 > 100 µM | OVCAR-5 > 100 µM | OVCAR-8 > 100 µM | RXF 393 > 100 µM | RXF 631 > 100 µM | SF-295 > 100 µM | SK-MEL-28 > 100 µM | SK-OV-3 > 100 µM | SNB-19 > 100 µM | SNB-78 > 100 µM | SR > 100 µM | TK-10 > 100 µM | U-251 > 100 µM | UACC-257 > 100 µM | UACC-62 46.1 µM | UO-31 > 100 µM

COC(=O)C(=O)CC(=O)CCn1ncc(Cl)c(Cl)c1=O
active: NCI-H522 0.57 µM
4.14 µM: HCT-15
inactive: 786-0 21.7 µM | A498 32.8 µM | A549 19.9 µM | ACHN 20.1 µM | CAKI-1 5.78 µM | CCRF-CEM 3.59 µM | COLO 205 14.3 µM | DLD-1 10.3 µM | DMS-114 3.15 µM | DMS-273 14.9 µM | EKVX 19.5 µM | HCC 2998 7.45 µM | HCT-116 15.1 µM | HL-60 3.94 µM | HOP-62 22.7 µM | HOP-92 15.7 µM | HT-29 11.5 µM | IGROV-1 17.1 µM | K562 3.56 µM | KM-20L2 16.9 µM | KM12 25.9 µM | LOX IMVI 7.16 µM | LXFL 529 10 µM | M14 14.7 µM | M19-MEL 4.01 µM | MOLT-4 6.19 µM | Malme-3M 18.7 µM | NCI-H226 24.2 µM | NCI-H23 13.2 µM | NCI-H460 19.7 µM | OVCAR-3 12.8 µM | OVCAR-4 4.62 µM | OVCAR-5 19.2 µM | OVCAR-8 13.3 µM | RPMI-8226 12.8 µM | RXF 393 20.2 µM | RXF 631 8.55 µM | SF-268 11.3 µM | SF-295 13.7 µM | SF-539 19.6 µM | SK-MEL-28 14 µM | SK-MEL-2 18.1 µM | SK-MEL-5 16.3 µM | SK-OV-3 31 µM | SN12C 16.9 µM | SNB-19 18.5 µM | SNB-75 20.8 µM | SNB-78 20.5 µM | SR 2.84 µM | SW-620 8.36 µM | TK-10 47.4 µM | U-251 9.23 µM | UACC-257 15.8 µM | UACC-62 10 µM | UO-31 18.1 µM | XF498 29 µM
